In ChEMBL document CHEMBL1201862, “PubChem BioAssay data set” (2004):
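Five compound concentrations were applied to cells in 96-well plates for 48 hours; endpoints were derived by simple linear interpolation of the resulting dose-response curve. The concentration for 50% growth inhibition is given as GI50.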 Calls of active or inactive are those of the source. No stated cut-off is given here; in the data, active = GI50 up to about 1.1 µM and inactive = higher.

Assays:
Test in all cases: NCI-60 cell line screen, 48 h
[1] = tested on: HOP-18
[2] = tested on: DMS-114
[3] = tested on: XF498
[4] = tested on: DMS-273
[5] = tested on: M19-MEL
[6] = tested on: SNB-78
[7] = tested on: DLD-1
[8] = tested on: KM-20L2
[9] = tested on: RXF 631

Structure (SMILES)	GI50 [1]	GI50 [2]	GI50 [3]	GI50 [4]	GI50 [5]	GI50 [6]	GI50 [7]	GI50 [8]	GI50 [9]
O=C(NN1C(=O)C(Cl)C1c1ccc(O)cc1)c1ccccc1O (stereo unspecified)	15.9 µM (inactive)	14 µM (inactive)	11.1 µM (inactive)	12.9 µM (inactive)	21.7 µM (inactive)	21.7 µM (inactive)	15.8 µM (inactive)		
O=Nc1ccc(O)c2ncccc12	11.3 µM (inactive)	3.9 µM (inactive)		2.55 µM (inactive)	4.25 µM (inactive)	2.43 µM (inactive)	9.57 µM (inactive)	23.9 µM (inactive)	
COc1ccc(/C=C2/CSC/C(=C/c3ccc(OC)c(OC)c3)C2=O)cc1OC	6.65 µM (inactive)		11.7 µM (inactive)	1.03 µM (active)	2.14 µM (inactive)	2.12 µM (inactive)	0.46 µM (active)	2.3 µM (inactive)	1.99 µM (inactive)
O=C1C=C(O)c2nc(O)ccc2C1=O			> 100 µM (inactive)	> 100 µM (inactive)	> 100 µM (inactive)	> 100 µM (inactive)	> 100 µM (inactive)	> 100 µM (inactive)	
CCc1cccc(C(C)C)c1C1C(=O)C(=O)N(c2nc3ccccc3s2)C(=O)C1=O	> 100 µM (inactive)	> 100 µM (inactive)		> 100 µM (inactive)	> 100 µM (inactive)	> 100 µM (inactive)	> 100 µM (inactive)	> 100 µM (inactive)	> 100 µM (inactive)
Cc1ccc(NC(=O)C(=O)C(C#N)c2ccccc2C)cc1C (stereo unspecified)	> 100 µM (inactive)	> 41.7 µM (inactive)	> 100 µM (inactive)	> 71.6 µM (inactive)		> 100 µM (inactive)	52.4 µM (inactive)	> 79.8 µM (inactive)	
Cc1cc(C)[n+]2c(c1)C=CC2.[O-][Cl+3]([O-])([O-])[O-]		5.5 µM (inactive)		0.459 µM (active)	21.2 µM (inactive)	21.2 µM (inactive)	10.7 µM (inactive)	21.3 µM (inactive)	
O=C1C[C@H](c2ccc(O)c(O)c2)Oc2cc(O)cc(O)c21	> 100 µM (inactive)	21.2 µM (inactive)		> 100 µM (inactive)	> 100 µM (inactive)	> 100 µM (inactive)	> 100 µM (inactive)	> 100 µM (inactive)	64.4 µM (inactive)
COc1ccc(CC#C/C=C/C(=O)NCC(C)C)cc1	> 100 µM (inactive)	> 100 µM (inactive)	> 100 µM (inactive)	> 100 µM (inactive)	> 100 µM (inactive)	> 100 µM (inactive)	> 100 µM (inactive)	> 100 µM (inactive)	
CC(=O)NCc1c(C(N)=O)ncn1Cc1ccccc1	> 100 µM (inactive)	> 100 µM (inactive)	> 100 µM (inactive)	> 100 µM (inactive)	> 100 µM (inactive)	> 100 µM (inactive)		> 100 µM (inactive)	> 100 µM (inactive)
COc1ccc2cc1Oc1ccc(cc1)CC1c3cc4c(cc3CCN1C)Oc1c(OC)cc3c(c1O4)C(C2)N(C)CC3 (stereo unspecified)			1.94 µM (inactive)	1.63 µM (inactive)	4.01 µM (inactive)	17.6 µM (inactive)	2.96 µM (inactive)	2.55 µM (inactive)	4.99 µM (inactive)
O=C(OCc1nc2ccc(Br)cc2c(=O)n1-c1ccccc1)c1ccccc1O			51.4 µM (inactive)		> 100 µM (inactive)	> 100 µM (inactive)	67.1 µM (inactive)	> 100 µM (inactive)	
CC(=O)OC1COC(N2C(=O)C(=O)c3ccccc32)C(OC(C)=O)C1OC(C)=O (stereo unspecified)		> 100 µM (inactive)		> 100 µM (inactive)	34.8 µM (inactive)	> 100 µM (inactive)	> 100 µM (inactive)	> 100 µM (inactive)	> 100 µM (inactive)
COc1ccc(C(c2c(O)c3ccccc3n(-c3ccccc3)c2=O)c2c(O)c3ccccc3n(-c3ccccc3)c2=O)cc1	> 100 µM (inactive)	> 100 µM (inactive)	59.3 µM (inactive)	> 100 µM (inactive)	> 100 µM (inactive)	> 100 µM (inactive)	> 100 µM (inactive)	> 100 µM (inactive)	
CC(=O)C1=C(C)NC2C=CC=CN12 (stereo unspecified)	> 100 µM (inactive)	> 100 µM (inactive)	> 100 µM (inactive)	> 100 µM (inactive)	> 100 µM (inactive)	> 100 µM (inactive)	> 100 µM (inactive)	> 100 µM (inactive)	
CCOC(=O)NC(=O)c1cn(CCCOC(=O)CCCCCCCCCCC(=O)OCCCn2cc(C(=O)NC(=O)OCC)c(=O)n(C)c2=O)c(=O)n(C)c1=O	> 100 µM (inactive)	> 100 µM (inactive)	> 100 µM (inactive)	> 100 µM (inactive)	> 100 µM (inactive)	> 100 µM (inactive)	> 100 µM (inactive)		
O=C1c2ccccc2C(=O)N1C/C=N/NS(=O)(=O)c1ccc2ccccc2c1	> 100 µM (inactive)		> 100 µM (inactive)	> 100 µM (inactive)	> 100 µM (inactive)	> 100 µM (inactive)	> 100 µM (inactive)	> 100 µM (inactive)	> 100 µM (inactive)
N#CC(/C(CCCC(=O)Nc1cccc([N+](=O)[O-])c1)=N/NC(=O)c1cc2ccccc2cc1O)c1ccccc1 (stereo unspecified)	18.3 µM (inactive)	20.2 µM (inactive)	25 µM (inactive)		17.9 µM (inactive)		36.7 µM (inactive)	38 µM (inactive)	29.8 µM (inactive)
O=c1c2ccccc2oc2nccnc12	> 100 µM (inactive)	> 100 µM (inactive)	> 100 µM (inactive)	> 100 µM (inactive)	> 100 µM (inactive)	> 100 µM (inactive)	> 100 µM (inactive)	> 100 µM (inactive)	> 100 µM (inactive)
COc1cc2c(cc1OC)C(C(CBr)CBr)N(C1CCCC1)CC2 (stereo unspecified)			> 100 µM (inactive)	> 100 µM (inactive)	> 100 µM (inactive)	> 10 µM (inactive)	> 100 µM (inactive)	1.46 µM (inactive)	
C#C[C@@]1(O)CCCC2=CC(=O)C[C@]21C	> 100 µM (inactive)	> 100 µM (inactive)	> 100 µM (inactive)		> 100 µM (inactive)		> 100 µM (inactive)		
C[N+](C)(C)CC1CCCCC1O (stereo unspecified)	1.28 µM (inactive)			> 100 µM (inactive)	> 100 µM (inactive)	> 100 µM (inactive)	> 100 µM (inactive)	> 100 µM (inactive)	> 100 µM (inactive)
CCCC(C)NC1=C(NC(C)=O)C(=O)c2ccccc2C1=O (stereo unspecified)			> 100 µM (inactive)	> 100 µM (inactive)	62.7 µM (inactive)	> 100 µM (inactive)	> 100 µM (inactive)	> 100 µM (inactive)	
C=C1C(=O)C=C2C=C3C(=O)C(C)(C)C[C@]3(O)C12C (stereo partly specified)		1.1 µM (active)	1.85 µM (inactive)	5.92 µM (inactive)	5.68 µM (inactive)	7.74 µM (inactive)	1.65 µM (inactive)		16.4 µM (inactive)
COC(=O)C[S+]([O-])c1ccccc1 (stereo unspecified)		20.8 µM (inactive)	76.7 µM (inactive)	28.9 µM (inactive)	30.5 µM (inactive)	33.5 µM (inactive)	29.1 µM (inactive)		
